The values below are quoted from earlier work in patent US10898503B2, “Cleavable drug conjugates, compositions thereof and methods of use” (priority 2013, dated 2021).

Where two headings read alike, the source gives them in different places.

For series [1] the following is noted: patients.
For series [2] the following is noted: in vivo.

Consider `COc1cccc2c1C(=O)c1c(O)c3c(c(O)c1C2=O)C[C@@](O)(C(=O)CO)C[C@@H]3O[C@H]1C[C@H](N)[C@H](O)[C@H](C)O1` [Doxorubicin], for which the “chance of developing cardiomyopathy” value in series [1] (cumulative dose of 300 mg/m^2) is 1-2%; in series [1] (cumulative dose of 400 mg/m^2) it was 3-5%; in series [1] (cumulative dose of 450 mg/m^2), 5 to 8%; in series [1] (cumulative dose of 500 mg/m^2) it was 6-20%.
Consider enfuvirtide, for which the half-life entry in series [2] is recorded as “four”.
